Values of other authors as cited in patent US11857677B2, “Ready to use injectable formulations of melphalan and processes for preparation thereof” (RK Pharma Solutions LLC, priority 2019, dated 2024).

SMILES: N[C@@H](Cc1ccc(N(CCCl)CCCl)cc1)C(=O)O [Melphalan, 4-[bis(2-chloroethyl)amino]-L-phenylalanine]
- Solubility in water: practically insoluble
